The text below walks through data of the supplement of paper PMC5303821, “Major sulfonate transporter Soa1 in Saccharomyces cerevisiae and considerable substrate diversity in its fungal family” (Nature Communications, 2017).

Assay [1] relates to soa1 del. The assay can be described thus: lag phase before growth; higher = slower start of growth. Particulars: sulfur source concentration 200 µM; S. cerevisiae S288C/BY sul1Δ sul2Δ soa1Δ with transporter ortholog inserted at SOA1 locus; sulfur-free B medium, 4% glucose, pH 6.5, sole sulfur source.
In assay [2] the test system is Fusarium oxysporum_ENH65823. The assay is described as above. Particulars: sulfur source concentration 200 µM; S. cerevisiae S288C/BY sul1Δ sul2Δ soa1Δ with transporter ortholog inserted at SOA1 locus; sulfur-free B medium, 4% glucose, pH 6.5, sole sulfur source.
Assay [3] deals with Aspergillus nidulans_XP_681611. The description is as above. The following applies: sulfur source concentration 200 µM; S. cerevisiae S288C/BY sul1Δ sul2Δ soa1Δ with transporter ortholog inserted at SOA1 locus; sulfur-free B medium, 4% glucose, pH 6.5, sole sulfur source.
The test system of assay [4] is Aspergillus nidulans_CBF74694. Described as above. Particulars: sulfur source concentration 200 µM; S. cerevisiae S288C/BY sul1Δ sul2Δ soa1Δ with transporter ortholog inserted at SOA1 locus; sulfur-free B medium, 4% glucose, pH 6.5, sole sulfur source.
Assay [5] concerns Aspergillus nidulans_XP_660670. The assay is described as above. Particulars: sulfur source concentration 200 µM; S. cerevisiae S288C/BY sul1Δ sul2Δ soa1Δ with transporter ortholog inserted at SOA1 locus; sulfur-free B medium, 4% glucose, pH 6.5, sole sulfur source.
The subject of assay [6] is Saccharomyces eubayanus_SOA2. Described as above. Particulars: sulfur source concentration 200 µM; S. cerevisiae S288C/BY sul1Δ sul2Δ soa1Δ with transporter ortholog inserted at SOA1 locus; sulfur-free B medium, 4% glucose, pH 6.5, sole sulfur source.
Assay [7] concerns Aspergillus nidulans_XP_661711. Described as above. The following applies: sulfur source concentration 200 µM; S. cerevisiae S288C/BY sul1Δ sul2Δ soa1Δ with transporter ortholog inserted at SOA1 locus; sulfur-free B medium, 4% glucose, pH 6.5, sole sulfur source.
Assay [8] has as its system Metarhizium robertsii_XP_007821441. The assay is described as above. The following applies: sulfur source concentration 200 µM; S. cerevisiae S288C/BY sul1Δ sul2Δ soa1Δ with transporter ortholog inserted at SOA1 locus; sulfur-free B medium, 4% glucose, pH 6.5, sole sulfur source.
The test system of assay [9] is Ogataea parapolymorpha_XP_013932458. The assay is described as above. Particulars: sulfur source concentration 200 µM; S. cerevisiae S288C/BY sul1Δ sul2Δ soa1Δ with transporter ortholog inserted at SOA1 locus; sulfur-free B medium, 4% glucose, pH 6.5, sole sulfur source.
Assay [10] has as its system Aspergillus nidulans_XP_660563. Described as above. The following applies: sulfur source concentration 200 µM; S. cerevisiae S288C/BY sul1Δ sul2Δ soa1Δ with transporter ortholog inserted at SOA1 locus; sulfur-free B medium, 4% glucose, pH 6.5, sole sulfur source.
Assay [11] deals with Metarhizium robertsii_XP_007823832. The assay is described as above. Particulars: S. cerevisiae S288C/BY sul1Δ sul2Δ soa1Δ with transporter ortholog inserted at SOA1 locus, sulfur-free B medium, 4% glucose, pH 6.5, sole sulfur source.
Assay [12] has as its system Ogataea parapolymorpha_XP_013936897. The description is as above. Particulars: sulfur source concentration 200 µM; S. cerevisiae S288C/BY sul1Δ sul2Δ soa1Δ with transporter ortholog inserted at SOA1 locus; sulfur-free B medium, 4% glucose, pH 6.5, sole sulfur source.
Assay [13] deals with Aspergillus nidulans_XP_661733. Described as above. The following applies: S. cerevisiae S288C/BY sul1Δ sul2Δ soa1Δ with transporter ortholog inserted at SOA1 locus, sulfur-free B medium, 4% glucose, pH 6.5, sole sulfur source.
Assay [14] has as its system Aspergillus nidulans (IAM 2006)_astA. The assay is described as above. The following applies: S. cerevisiae S288C/BY sul1Δ sul2Δ soa1Δ with transporter ortholog inserted at SOA1 locus, sulfur-free B medium, 4% glucose, pH 6.5, sole sulfur source.
For assay [15], the system named is Aspergillus nidulans_CBF80346. The description is as above. The following applies: sulfur source concentration 200 µM; S. cerevisiae S288C/BY sul1Δ sul2Δ soa1Δ with transporter ortholog inserted at SOA1 locus; sulfur-free B medium, 4% glucose, pH 6.5, sole sulfur source.
Assay [16] has as its system soa1 del. The assay can be described thus: maximal culture density with compound as sole sulfur source (OD600); higher = better growth. Particulars: S. cerevisiae S288C/BY sul1Δ sul2Δ soa1Δ with transporter ortholog inserted at SOA1 locus, sulfur-free B medium, 4% glucose, pH 6.5, sole sulfur source.
The subject of assay [17] is Aspergillus nidulans_CBF74694. The description is as above. The following applies: S. cerevisiae S288C/BY sul1Δ sul2Δ soa1Δ with transporter ortholog inserted at SOA1 locus, sulfur-free B medium, 4% glucose, pH 6.5, sole sulfur source.
The subject of assay [18] is Saccharomyces eubayanus_SOA2. Described as above. The following applies: S. cerevisiae S288C/BY sul1Δ sul2Δ soa1Δ with transporter ortholog inserted at SOA1 locus, sulfur-free B medium, 4% glucose, pH 6.5, sole sulfur source.
Assay [19] has as its system Metarhizium robertsii_XP_007821441. The assay is described as above. The following applies: S. cerevisiae S288C/BY sul1Δ sul2Δ soa1Δ with transporter ortholog inserted at SOA1 locus, sulfur-free B medium, 4% glucose, pH 6.5, sole sulfur source.
For assay [20], the system named is Ogataea parapolymorpha_XP_013932458. Described as above. Particulars: S. cerevisiae S288C/BY sul1Δ sul2Δ soa1Δ with transporter ortholog inserted at SOA1 locus, sulfur-free B medium, 4% glucose, pH 6.5, sole sulfur source.
The subject of assay [21] is Saccharomyces cerevisiae_SOA1. The assay is described as above. The following applies: S. cerevisiae S288C/BY sul1Δ sul2Δ soa1Δ with transporter ortholog inserted at SOA1 locus, sulfur-free B medium, 4% glucose, pH 6.5, sole sulfur source.
The test system of assay [22] is Aspergillus nidulans_XP_660563. The assay is described as above. Particulars: S. cerevisiae S288C/BY sul1Δ sul2Δ soa1Δ with transporter ortholog inserted at SOA1 locus, sulfur-free B medium, 4% glucose, pH 6.5, sole sulfur source.
In assay [23] the test system is Saccharomyces uvarum_SOA2. The description is as above. The following applies: S. cerevisiae S288C/BY sul1Δ sul2Δ soa1Δ with transporter ortholog inserted at SOA1 locus, sulfur-free B medium, 4% glucose, pH 6.5, sole sulfur source.
The test system of assay [24] is Metarhizium robertsii_XP_007823832. Described as above. Particulars: S. cerevisiae S288C/BY sul1Δ sul2Δ soa1Δ with transporter ortholog inserted at SOA1 locus, sulfur-free B medium, 4% glucose, pH 6.5, sole sulfur source.
The test system of assay [25] is Ogataea parapolymorpha_XP_013936897. The description is as above. Particulars: S. cerevisiae S288C/BY sul1Δ sul2Δ soa1Δ with transporter ortholog inserted at SOA1 locus, sulfur-free B medium, 4% glucose, pH 6.5, sole sulfur source.
The test system of assay [26] is Aspergillus nidulans_XP_661733. The assay is described as above. The following applies: S. cerevisiae S288C/BY sul1Δ sul2Δ soa1Δ with transporter ortholog inserted at SOA1 locus, sulfur-free B medium, 4% glucose, pH 6.5, sole sulfur source.
Assay [27] deals with Aspergillus nidulans (IAM 2006)_astA. The assay is described as above. Particulars: S. cerevisiae S288C/BY sul1Δ sul2Δ soa1Δ with transporter ortholog inserted at SOA1 locus, sulfur-free B medium, 4% glucose, pH 6.5, sole sulfur source.
In assay [28] the test system is Aspergillus nidulans_CBF80346. Described as above. Particulars: S. cerevisiae S288C/BY sul1Δ sul2Δ soa1Δ with transporter ortholog inserted at SOA1 locus, sulfur-free B medium, 4% glucose, pH 6.5, sole sulfur source.
[29] abbreviates: sulfur source concentration 200 µM.
Setting [30] is: sulfur source concentration 40000 µM.

As to `CSCC[C@H](N)C(=O)O` [Methionine], the “lag phase before growth” value in the assay on soa1 del [1] was determined as 4.14 h; in assay [2], 5.35 h; in assay [3], 3.6 h; in [4] it was 5.36 h; in [5], 4.47 h; in assay [6] it was 4.47 h. Also, the “lag phase before growth” value in assay [7] amounted to 4.47 h; in [8] it was 4.5 h; in [9], 3.88 h; in assay [10], 3.48 h; in assay [11] (setting [29]), 4.38 h; in assay [12] it was 2.97 h. For the same compound, the “lag phase before growth” value is 4.49 h in assay [13] (setting [29]), 5.14 h in [14] (setting [29]) and 5.16 h in assay [15]. Also, the maximal culture density with soa1 del [16] (setting [29]) worked out at 1.69; in [17] (setting [29]) it was 1.57; in [18] (setting [29]), 1.63; in [19] (setting [29]), 1.59; in assay [20] (setting [29]), 1.56; in assay [21] (setting [29]), 1.61. Moreover, the maximal culture density in [22] (setting [29]) was 1.6; in [23] (setting [29]), 1.68; in [24] (setting [29]), 1.58; in assay [25] (setting [29]), 1.57; in [26] (setting [29]), 1.59; in assay [27] (setting [29]), 1.59. Moreover, the maximal culture density in assay [28] (setting [29]) came to 1.58.
Regarding `CCCS(=O)(=O)O` [Propanesulfonate], the “lag phase before growth” value in [6] is 14 h. For the same compound, the maximal culture density was 0.212 in the assay on soa1 del [16] (setting [29]); 0.192 in assay [17] (setting [29]); 1.7 in assay [18] (setting [29]); 0.263 in [19] (setting [29]); 0.243 in [20] (setting [29]); 1.6 in assay [21] (setting [29]). Moreover, the maximal culture density in assay [22] (setting [29]) worked out at 0.327; in assay [23] (setting [29]) it was 1.69; in [24] (setting [29]) it was 0.507; in assay [25] (setting [29]), 0.296; in [26] (setting [29]), 0.249; in assay [27] (setting [29]), 0.486. Besides, the maximal culture density in assay [28] (setting [29]) stood at 0.212.
Consider `O=S(=O)(O)O` [sulfate], for which the “lag phase before growth” value came out at 8.36 h in [11] (setting [29]); 11.7 h in [11] (setting [30]); 39.2 h in [13] (setting [30]); 6.92 h in [14] (setting [29]); 7.29 h in assay [14] (setting [30]). Also, the maximal culture density was determined as 0.212 with soa1 del [16] (setting [29]); 0.222 in the assay with soa1 del [16] (setting [30]); 0.184 in assay [17] (setting [29]); 0.208 in assay [17] (setting [30]); 0.201 in assay [18] (setting [29]); 0.21 in assay [18] (setting [30]). Moreover, the maximal culture density in assay [19] (setting [29]) came out at 0.215; in assay [19] (setting [30]) it was 0.225; in assay [20] (setting [29]), 0.281; in [20] (setting [30]), 0.343; in assay [21] (setting [29]), 0.274; in assay [21] (setting [30]) it was 1.71. Further, the maximal culture density is 0.31 in assay [22] (setting [29]); 0.315 in assay [22] (setting [30]); 0.199 in assay [23] (setting [29]); 0.212 in assay [23] (setting [30]); 1.57 in assay [24] (setting [29]); 1.63 in assay [24] (setting [30]). Besides, the maximal culture density came to 0.294 in assay [25] (setting [29]); 0.301 in [25] (setting [30]); 0.264 in assay [26] (setting [29]); 1.57 in assay [26] (setting [30]); 1.6 in assay [27] (setting [29]); 1.68 in assay [27] (setting [30]). The figures for the maximal culture density in assay [28] (setting [29]) and in assay [28] (setting [30]) were 0.243 and 0.216, respectively.
Consider `O=S(O)O` [sulfite], for which the “lag phase before growth” value in assay [11] (setting [29]) was found to be 8.25 h; in assay [14] (setting [29]) it was 6.93 h. In addition, the maximal culture density is 0.222 in the assay with soa1 del [16] (setting [29]); 0.196 in [17] (setting [29]); 0.645 in assay [18] (setting [29]); 0.235 in [19] (setting [29]); 0.285 in [20] (setting [29]); 1.6 in assay [21] (setting [29]). Further, the maximal culture density in [22] (setting [29]) stood at 0.322; in assay [23] (setting [29]), 1.44; in assay [24] (setting [29]) it was 1.56; in assay [25] (setting [29]), 0.284; in assay [26] (setting [29]), 0.274; in assay [27] (setting [29]), 1.6. The maximal culture density in [28] (setting [29]) was found to be 0.262.
